Tests used:
Format in all cases: in vivo
Lewis rats = experiment: EAE (experimental autoimmune encephalomyelitis) rat model for MS, clinical score; settings: for delay of onset / recovery starts earlier: FIG. 2, versus control
rat = experiment: Acute toxicity, rat
Description: (§1) The tested substance(B-220), was administered daily with 6 mg/animal, a dose that can be increased since the margin to toxic effects is wide and most likely further reduce the symptoms. It is to be noted that the acute toxicity of the tested substance used according to the present invention is low, which is exemplified with the following: […]

rabbit = experiment: Acute toxicity, cutaneous, rabbit
Description: as §1

mice = experiment: Chronic toxicity on mice; settings: tested up to 270 days

In the case of `Cc1cc2nc3c4ccccc4n(CCN(C)C)c3nc2cc1C` [B-220], the “reduction of the CNS symptoms (clinical score)” value (Lewis rats; FIG. 1, B-220 daily 6 mg/animal, Interferon-beta daily 3×10^5 U/animal, versus negative control) is reported as 2/3, the delay of onset (Lewis rats; 6 mg/animal) is reported as about 2 days and the recovery starts earlier (Lewis rats; 6 mg/animal) is reported as about 2 days. The delay of onset (Lewis rats; 12 mg/animal) was about 4 days, the recovery starts earlier (Lewis rats; 12 mg/animal) was about 3 days and the LD50 (rat; intravenous) was over 100 mg/kg bw. The “NOEL (No Observable Effect Level)” value (rat; intravenous) was 12.5 mg/kg bw, the LD50 (rat; oral) was over 800 mg/kg bw and the “NOEL (No Observable Effect Level)” value (rabbit) was 200 mg/kg bw. For the same compound, the chronic toxicity (mice) was “has not induced toxicity”.

Reference: patent US20010046996A1, “Use of a compound for preparing a drug” (priority 2000, published 2001)
